Numbers after ± are expanded uncertainties.
Assay: molar heat capacity at constant pressure
Conditions: 101.33 kPa, Crystal, PPMS-Quantum Design

[O-][Si]([O-])([O-])[O-].[Th+4] [thorium silicate]
molar heat capacity at constant pressure (1.885 K): 0.001439 ± 0.00011 J/K/mol | molar heat capacity at constant pressure (1.946 K): 0.001553 ± 0.00012 J/K/mol | molar heat capacity at constant pressure (2.013 K): 0.001656 ± 0.00012 J/K/mol | molar heat capacity at constant pressure (2.084 K): 0.0018 ± 0.00014 J/K/mol | molar heat capacity at constant pressure (2.158 K): 0.001932 ± 0.00015 J/K/mol | molar heat capacity at constant pressure (2.234 K): 0.002074 ± 0.00015 J/K/mol | molar heat capacity at constant pressure (2.319 K): 0.002253 ± 0.00016 J/K/mol | molar heat capacity at constant pressure (2.399 K): 0.002416 ± 0.00018 J/K/mol | molar heat capacity at constant pressure (2.484 K): 0.002584 ± 0.00019 J/K/mol | molar heat capacity at constant pressure (2.572 K): 0.002792 ± 0.0002 J/K/mol | molar heat capacity at constant pressure (2.66 K): 0.003006 ± 0.00022 J/K/mol | molar heat capacity at constant pressure (2.749 K): 0.003244 ± 0.00023 J/K/mol | molar heat capacity at constant pressure (2.842 K): 0.0035 ± 0.00025 J/K/mol | molar heat capacity at constant pressure (2.936 K): 0.003794 ± 0.00027 J/K/mol | molar heat capacity at constant pressure (3.038 K): 0.004121 ± 0.00029 J/K/mol | molar heat capacity at constant pressure (3.136 K): 0.004482 ± 0.00032 J/K/mol | molar heat capacity at constant pressure (3.243 K): 0.004896 ± 0.00035 J/K/mol | molar heat capacity at constant pressure (3.353 K): 0.005336 ± 0.00038 J/K/mol | molar heat capacity at constant pressure (3.463 K): 0.005793 ± 0.00041 J/K/mol | molar heat capacity at constant pressure (3.573 K): 0.006259 ± 0.00045 J/K/mol | molar heat capacity at constant pressure (3.69 K): 0.00688 ± 0.00049 J/K/mol | molar heat capacity at constant pressure (3.812 K): 0.00739 ± 0.00052 J/K/mol | molar heat capacity at constant pressure (3.935 K): 0.007954 ± 0.00056 J/K/mol | molar heat capacity at constant pressure (4.063 K): 0.008647 ± 0.00061 J/K/mol | molar heat capacity at constant pressure (4.198 K): 0.009528 ± 0.00067 J/K/mol | molar heat capacity at constant pressure (4.338 K): 0.01046 ± 0.00074 J/K/mol | molar heat capacity at constant pressure (4.483 K): 0.01148 ± 0.00081 J/K/mol | molar heat capacity at constant pressure (4.637 K): 0.0127 ± 0.0009 J/K/mol | molar heat capacity at constant pressure (4.798 K): 0.01391 ± 0.00098 J/K/mol | molar heat capacity at constant pressure (4.968 K): 0.01533 ± 0.0011 J/K/mol | molar heat capacity at constant pressure (5 K): 0.01646 ± 0.0013 J/K/mol | molar heat capacity at constant pressure (5.151 K): 0.01714 ± 0.0012 J/K/mol | molar heat capacity at constant pressure (5.343 K): 0.01921 ± 0.0014 J/K/mol | molar heat capacity at constant pressure (5.54 K): 0.02152 ± 0.0015 J/K/mol | molar heat capacity at constant pressure (5.744 K): 0.02438 ± 0.0017 J/K/mol | molar heat capacity at constant pressure (5.956 K): 0.02725 ± 0.0019 J/K/mol | molar heat capacity at constant pressure (6.175 K): 0.03065 ± 0.0022 J/K/mol | molar heat capacity at constant pressure (6.401 K): 0.03406 ± 0.0024 J/K/mol | molar heat capacity at constant pressure (6.631 K): 0.03824 ± 0.0027 J/K/mol | molar heat capacity at constant pressure (6.869 K): 0.04281 ± 0.003 J/K/mol | molar heat capacity at constant pressure (7.113 K): 0.04768 ± 0.0034 J/K/mol | molar heat capacity at constant pressure (7.362 K): 0.05303 ± 0.0037 J/K/mol | molar heat capacity at constant pressure (7.62 K): 0.05923 ± 0.0042 J/K/mol | molar heat capacity at constant pressure (7.885 K): 0.06632 ± 0.0046 J/K/mol | molar heat capacity at constant pressure (8.158 K): 0.07389 ± 0.0052 J/K/mol | molar heat capacity at constant pressure (8.441 K): 0.08256 ± 0.0058 J/K/mol | molar heat capacity at constant pressure (8.734 K): 0.09321 ± 0.0066 J/K/mol | molar heat capacity at constant pressure (9.036 K): 0.1048 ± 0.0073 J/K/mol | molar heat capacity at constant pressure (9.352 K): 0.1182 ± 0.0083 J/K/mol | molar heat capacity at constant pressure (9.685 K): 0.1338 ± 0.0094 J/K/mol | molar heat capacity at constant pressure (10 K): 0.1498 ± 0.011 J/K/mol | molar heat capacity at constant pressure (10.02 K): 0.1509 ± 0.011 J/K/mol | molar heat capacity at constant pressure (10.37 K): 0.1707 ± 0.012 J/K/mol | molar heat capacity at constant pressure (10.73 K): 0.1934 ± 0.014 J/K/mol | molar heat capacity at constant pressure (11.1 K): 0.2188 ± 0.015 J/K/mol | molar heat capacity at constant pressure (11.48 K): 0.2483 ± 0.017 J/K/mol | molar heat capacity at constant pressure (11.88 K): 0.2819 ± 0.02 J/K/mol | molar heat capacity at constant pressure (12.29 K): 0.32 ± 0.022 J/K/mol | molar heat capacity at constant pressure (12.72 K): 0.3633 ± 0.025 J/K/mol | molar heat capacity at constant pressure (13.16 K): 0.4129 ± 0.029 J/K/mol | molar heat capacity at constant pressure (13.61 K): 0.4682 ± 0.033 J/K/mol | molar heat capacity at constant pressure (14.09 K): 0.5314 ± 0.037 J/K/mol | molar heat capacity at constant pressure (14.58 K): 0.603 ± 0.042 J/K/mol | molar heat capacity at constant pressure (15.08 K): 0.6838 ± 0.048 J/K/mol | molar heat capacity at constant pressure (15.61 K): 0.7739 ± 0.054 J/K/mol | molar heat capacity at constant pressure (16.14 K): 0.8747 ± 0.061 J/K/mol | molar heat capacity at constant pressure (16.71 K): 0.9903 ± 0.069 J/K/mol | molar heat capacity at constant pressure (17.29 K): 1.117 ± 0.078 J/K/mol | molar heat capacity at constant pressure (17.89 K): 1.255 ± 0.087 J/K/mol | molar heat capacity at constant pressure (18.52 K): 1.411 ± 0.098 J/K/mol | molar heat capacity at constant pressure (19.15 K): 1.576 ± 0.11 J/K/mol | molar heat capacity at constant pressure (19.81 K): 1.761 ± 0.12 J/K/mol | molar heat capacity at constant pressure (20 K): 1.81 ± 0.12 J/K/mol | molar heat capacity at constant pressure (20.51 K): 1.965 ± 0.14 J/K/mol | molar heat capacity at constant pressure (21.22 K): 2.185 ± 0.15 J/K/mol | molar heat capacity at constant pressure (21.97 K): 2.428 ± 0.17 J/K/mol | molar heat capacity at constant pressure (22.7 K): 2.683 ± 0.19 J/K/mol | molar heat capacity at constant pressure (23.5 K): 2.973 ± 0.21 J/K/mol | molar heat capacity at constant pressure (24.27 K): 3.257 ± 0.23 J/K/mol | molar heat capacity at constant pressure (25.16 K): 3.599 ± 0.25 J/K/mol | molar heat capacity at constant pressure (25.98 K): 3.941 ± 0.27 J/K/mol | molar heat capacity at constant pressure (26.91 K): 4.308 ± 0.3 J/K/mol | molar heat capacity at constant pressure (27.88 K): 4.727 ± 0.33 J/K/mol | molar heat capacity at constant pressure (28.82 K): 5.152 ± 0.36 J/K/mol | molar heat capacity at constant pressure (29.81 K): 5.6 ± 0.39 J/K/mol | molar heat capacity at constant pressure (30 K): 5.69 ± 0.4 J/K/mol | molar heat capacity at constant pressure (30.85 K): 6.085 ± 0.42 J/K/mol | molar heat capacity at constant pressure (31.93 K): 6.6 ± 0.46 J/K/mol | molar heat capacity at constant pressure (33.08 K): 7.146 ± 0.5 J/K/mol | molar heat capacity at constant pressure (34.36 K): 7.779 ± 0.54 J/K/mol | molar heat capacity at constant pressure (35.54 K): 8.309 ± 0.58 J/K/mol | molar heat capacity at constant pressure (36.76 K): 8.996 ± 0.62 J/K/mol | molar heat capacity at constant pressure (38.05 K): 9.736 ± 0.68 J/K/mol | molar heat capacity at constant pressure (39.38 K): 10.24 ± 0.72 J/K/mol | molar heat capacity at constant pressure (40 K): 10.68 ± 0.75 J/K/mol | molar heat capacity at constant pressure (40.71 K): 10.97 ± 0.76 J/K/mol | molar heat capacity at constant pressure (42.03 K): 11.71 ± 0.81 J/K/mol | molar heat capacity at constant pressure (43.53 K): 12.5 ± 0.87 J/K/mol | molar heat capacity at constant pressure (45.03 K): 13.28 ± 0.92 J/K/mol | molar heat capacity at constant pressure (46.58 K): 14.12 ± 0.98 J/K/mol | molar heat capacity at constant pressure (48.19 K): 15 ± 1.1 J/K/mol | molar heat capacity at constant pressure (49.84 K): 15.88 ± 1.1 J/K/mol | molar heat capacity at constant pressure (50 K): 16.04 ± 1.1 J/K/mol | molar heat capacity at constant pressure (51.54 K): 16.84 ± 1.2 J/K/mol | molar heat capacity at constant pressure (53.32 K): 17.83 ± 1.2 J/K/mol | molar heat capacity at constant pressure (55.17 K): 18.86 ± 1.3 J/K/mol | molar heat capacity at constant pressure (57.08 K): 19.9 ± 1.4 J/K/mol | molar heat capacity at constant pressure (59.06 K): 20.99 ± 1.5 J/K/mol | molar heat capacity at constant pressure (61.1 K): 22.12 ± 1.5 J/K/mol | molar heat capacity at constant pressure (63.21 K): 23.21 ± 1.6 J/K/mol | molar heat capacity at constant pressure (65.39 K): 24.39 ± 1.7 J/K/mol | molar heat capacity at constant pressure (67.65 K): 25.63 ± 1.8 J/K/mol | molar heat capacity at constant pressure (69.99 K): 26.91 ± 1.9 J/K/mol | molar heat capacity at constant pressure (72.42 K): 28.19 ± 2 J/K/mol | molar heat capacity at constant pressure (74.93 K): 29.51 ± 2 J/K/mol | molar heat capacity at constant pressure (77.52 K): 30.84 ± 2.1 J/K/mol | molar heat capacity at constant pressure (80.21 K): 32.24 ± 2.2 J/K/mol | molar heat capacity at constant pressure (82.99 K): 33.67 ± 2.3 J/K/mol | molar heat capacity at constant pressure (85.77 K): 35.08 ± 2.4 J/K/mol | molar heat capacity at constant pressure (88.74 K): 36.63 ± 2.5 J/K/mol | molar heat capacity at constant pressure (91.81 K): 38.21 ± 2.7 J/K/mol | molar heat capacity at constant pressure (94.98 K): 39.83 ± 2.8 J/K/mol | molar heat capacity at constant pressure (98.28 K): 41.48 ± 2.9 J/K/mol | molar heat capacity at constant pressure (100 K): 42.28 ± 2.9 J/K/mol | molar heat capacity at constant pressure (101.68 K): 43.16 ± 3 J/K/mol | molar heat capacity at constant pressure (105.2 K): 44.86 ± 3.1 J/K/mol | molar heat capacity at constant pressure (108.84 K): 46.57 ± 3.2 J/K/mol | molar heat capacity at constant pressure (112.61 K): 48.32 ± 3.4 J/K/mol | molar heat capacity at constant pressure (116.51 K): 50.09 ± 3.5 J/K/mol | molar heat capacity at constant pressure (120.55 K): 51.87 ± 3.6 J/K/mol | molar heat capacity at constant pressure (124.73 K): 53.61 ± 3.7 J/K/mol | molar heat capacity at constant pressure (129.04 K): 55.37 ± 3.9 J/K/mol | molar heat capacity at constant pressure (133.51 K): 57.22 ± 4 J/K/mol | molar heat capacity at constant pressure (138.13 K): 59.1 ± 4.1 J/K/mol | molar heat capacity at constant pressure (142.91 K): 60.93 ± 4.2 J/K/mol | molar heat capacity at constant pressure (147.86 K): 62.82 ± 4.4 J/K/mol | molar heat capacity at constant pressure (150 K): 63.64 ± 4.4 J/K/mol | molar heat capacity at constant pressure (152.97 K): 64.6 ± 4.5 J/K/mol | molar heat capacity at constant pressure (158.25 K): 66.54 ± 4.6 J/K/mol | molar heat capacity at constant pressure (163.72 K): 68.4 ± 4.8 J/K/mol | molar heat capacity at constant pressure (169.39 K): 70.23 ± 4.9 J/K/mol | molar heat capacity at constant pressure (175.25 K): 72.2 ± 5 J/K/mol | molar heat capacity at constant pressure (181.32 K): 74.15 ± 5.2 J/K/mol | molar heat capacity at constant pressure (187.59 K): 75.84 ± 5.3 J/K/mol | molar heat capacity at constant pressure (194.08 K): 77.96 ± 5.4 J/K/mol | molar heat capacity at constant pressure (200 K): 79.46 ± 5.5 J/K/mol | molar heat capacity at constant pressure (200.79 K): 79.76 ± 5.5 J/K/mol | molar heat capacity at constant pressure (207.73 K): 81.56 ± 5.7 J/K/mol | molar heat capacity at constant pressure (214.93 K): 83.34 ± 5.8 J/K/mol | molar heat capacity at constant pressure (222.36 K): 85.17 ± 5.9 J/K/mol | molar heat capacity at constant pressure (230.05 K): 86.81 ± 6 J/K/mol | molar heat capacity at constant pressure (238.01 K): 88.63 ± 6.2 J/K/mol | molar heat capacity at constant pressure (246.25 K): 90.44 ± 6.3 J/K/mol | molar heat capacity at constant pressure (250 K): 91.07 ± 6.3 J/K/mol | molar heat capacity at constant pressure (254.74 K): 92.01 ± 6.4 J/K/mol | molar heat capacity at constant pressure (263.54 K): 93.59 ± 6.5 J/K/mol | molar heat capacity at constant pressure (272.64 K): 95.02 ± 6.6 J/K/mol | molar heat capacity at constant pressure (282.08 K): 96.5 ± 6.7 J/K/mol | molar heat capacity at constant pressure (291.84 K): 98.01 ± 6.8 J/K/mol | molar heat capacity at constant pressure (298.15 K): 98.68 ± 6.9 J/K/mol | molar heat capacity at constant pressure (300 K): 98.88 ± 6.9 J/K/mol | molar heat capacity at constant pressure (302.26 K): 99.17 ± 6.9 J/K/mol
